Test results published in patent US10576060B2, “FK506 derivative maintaining nerve regeneration activity without immunosuppressive activity, and use thereof” (INTRON BIOTECHNOLOGY CO., LTD, priority 2014, dated 2020).
“Also recorded” adds a separate entry of the source.

Assays:
[1] = tested on: rat pheochromocytoma cells (PC12); experiment: Nerve regeneration activity: neurite outgrowth in NGF-treated PC12 cells; format: cell-based; details: 10 nM compound with NGF 10 ng/mL, 96 hours
Experimental: A relative nerve regeneration activity of the compound, compared to authentic FK506, was determined using rat pheochromocytoma cells (PC12) by the method described in Mo, S. J. et al. (J. Am. Chem. Soc. 2011, 133, 976-985). The PC12 cells were treated with nerve growth factor (NGF; KOMA Biotech; 10 ng/mL) which induces neurite outgrowth for 96 hours. 10 nM of FK506 or 9-deoxo-prolyl-FK506 was treated together or excluded. The neurite lengths were measured on photographic prints by the method Revill, W. P. et al. described (J. Pharmacol. Exp. Ther. 2002, 302, 1278-1285).
A relative neuroregenerative property of 31-O-demethyl-FK506 compared to authentic FK506 was determined using the same method as Example 3. (2).
A relative nerve regeneration property of 9-deoxo-31-O-demethyl-FK506 compared to authentic FK506 was determined using the same method as Example 3. (2).

[2] = tested on: CD3/CD28-activated human T-cells; experiment: In vitro T-cell activity: interleukin-2 secretion by CD3/CD28-activated human T-cells; format: cell-based; details: compound 0.1 nM, 16 to 20 hours
Experimental: A relative immunosuppressive property of the compound compared to authentic FK506 was determined using T-lymphocytes as described in Mo, S. J. et al. (J. Am. Chem. Soc. 2011, 133, 976-985). Simply, interleukin-2 secretions were quantified after treating the compound (0.1 nM) with CD3/CD28-activated human T-cells with the compounds for 16 to 20 hours.
A relative immunosuppressive property of 31-O-demethyl-FK506 compared to authentic FK506 was determined using the same method as Example 3. (1).

Structure (SMILES)	neurite outgrowth promotion (neurite length) [1]	interleukin-2 secretion (immunosuppressive activity) [2]
C=CC[C@@H]1/C=C(\C)C[C@H](C)C[C@H](OC)[C@H]2O[C@@](O)(CC(=O)N3CCCC[C@H]3C(=O)O[C@H](/C(C)=C/[C@@H]3CC[C@@H](O)[C@H](O)C3)[C@H](C)[C@@H](O)CC1=O)[C@H](C)C[C@@H]2OC [9-deoxo-31-O-demethyl-FK506]	excellent effect on neurite outgrowth promotion; also recorded: promotes neurite outgrowth in PC12 cells	significantly increased to reach that of the normal group; also recorded: increased significantly to reach a normal level
C=CC[C@@H]1/C=C(\C)C[C@H](C)C[C@H](OC)[C@H]2O[C@@](O)(CC(=O)N3CCC[C@H]3C(=O)O[C@H](/C(C)=C/[C@@H]3CC[C@@H](O)[C@H](OC)C3)[C@H](C)[C@@H](O)CC1=O)[C@H](C)C[C@@H]2OC [9-deoxo-prolyl-FK506]	excellent effect on neurite outgrowth promotion; also recorded: promotes neurite outgrowth in PC12 cells	significantly increased to reach that of the normal group; also recorded: increased significantly to reach a normal level
C=CC[C@@H]1/C=C(\C)C[C@H](C)C[C@H](OC)[C@H]2O[C@@](O)(C(=O)C(=O)N3CCCC[C@H]3C(=O)O[C@H](/C(C)=C/[C@@H]3CC[C@@H](O)[C@H](O)C3)[C@H](C)[C@@H](O)CC1=O)[C@H](C)C[C@@H]2OC [31-O-demethyl-FK506]	excellent effect on neurite outgrowth promotion; also recorded: promotes neurite outgrowth in PC12 cells	significantly increased to reach that of the normal group; also recorded: increased significantly to reach a normal level
C=CC[C@@H]1/C=C(\C)C[C@H](C)C[C@H](OC)[C@H]2O[C@@](O)(C(=O)C(=O)N3CCCC[C@H]3C(=O)O[C@H](/C(C)=C/[C@@H]3CC[C@@H](O)[C@H](OC)C3)[C@H](C)[C@@H](O)CC1=O)[C@H](C)C[C@@H]2OC [FK506]		decreased as much as the number of CD3/CD28-inactivated human T-cells
